According to patent US20230312550A1, “N-(2-(4-CYANOTHIAZOLIDIN-3-YL)-2-OXOETHYL)-QUINOLINE-4-CARBOXAMIDES” (AstraZeneca AB, priority 2020, published 2023):
pIC50, pKd: −log10 of the molar value. Converted amounts (≈) assume the structure as drawn.

What was measured:
FAP = FAP (Homo sapiens (Human), UniProt Q12884); test: hFAP inhibition assay; type: biochemical; details: Ala-Pro-AMC 20 μM, n = 1 or geometric mean n = 2-3
In short: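 Human FAP (0.48 nM) in 100 mM Tris HCl, 100 mM NaCl, 0.05% Chaps, pH 7.4 was preincubated 15 min at rt in the dark with compounds (10-point, 3-fold series from 50 μM). Substrate was added from a 40 μM solution, then 30 min at rt. Fluorescence read at ex 340/em 460 nm; IC50 from one-site dose-response fit of % inhibition.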

[1] = target: human Fibroblast activation protein alpha (hFAP) (Homo sapiens (Human), UniProt Q12884); test: hFAP inhibition assay (tight binders); type: biochemical; details: Ala-Pro-AMC 20 μM, n = 1 or geometric mean n = 2-6; further: hFAP 2.4 pM
Sequence of human Fibroblast activation protein alpha (hFAP) (Q12884 38-760): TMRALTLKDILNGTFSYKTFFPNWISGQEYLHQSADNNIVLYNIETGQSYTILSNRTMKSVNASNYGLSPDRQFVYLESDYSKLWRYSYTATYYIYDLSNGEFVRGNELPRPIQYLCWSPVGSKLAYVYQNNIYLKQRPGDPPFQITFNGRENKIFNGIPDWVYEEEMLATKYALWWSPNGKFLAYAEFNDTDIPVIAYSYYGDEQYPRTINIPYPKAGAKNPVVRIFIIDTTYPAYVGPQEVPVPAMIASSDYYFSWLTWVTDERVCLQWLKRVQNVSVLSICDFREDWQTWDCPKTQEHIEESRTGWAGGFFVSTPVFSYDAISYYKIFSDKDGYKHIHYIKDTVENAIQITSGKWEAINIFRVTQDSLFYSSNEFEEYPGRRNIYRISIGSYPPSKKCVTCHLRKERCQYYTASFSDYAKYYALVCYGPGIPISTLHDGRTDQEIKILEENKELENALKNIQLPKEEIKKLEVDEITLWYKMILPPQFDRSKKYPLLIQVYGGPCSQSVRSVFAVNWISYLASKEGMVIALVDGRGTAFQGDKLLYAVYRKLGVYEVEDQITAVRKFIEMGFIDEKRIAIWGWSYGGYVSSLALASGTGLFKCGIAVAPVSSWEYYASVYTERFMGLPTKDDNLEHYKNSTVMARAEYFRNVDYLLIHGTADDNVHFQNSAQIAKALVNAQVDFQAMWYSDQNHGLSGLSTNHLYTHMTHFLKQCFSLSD
Method: The plates were read on a PHERAstar® reader with excitation 340 nm and emission 460 nm. Data were analyzed in Genedata Screener®. IC50 values were determined by plotting % inhibition versus log compound concentration and using a one site dose response model.

hFAP (M39-A757) = hFAP (M39-A757) (Homo sapiens (Human), UniProt Q12884); test: hFAP binding assay (surface plasmon resonance); details: SPR, 20° C.; for hFAP Binding assay k(off) / hFAP Binding assay k(on): single cycle kinetics; for pKd: n = 1 or geometric mean n = 2-4
Sequence of hFAP (M39-A757) (Q12884 39-757): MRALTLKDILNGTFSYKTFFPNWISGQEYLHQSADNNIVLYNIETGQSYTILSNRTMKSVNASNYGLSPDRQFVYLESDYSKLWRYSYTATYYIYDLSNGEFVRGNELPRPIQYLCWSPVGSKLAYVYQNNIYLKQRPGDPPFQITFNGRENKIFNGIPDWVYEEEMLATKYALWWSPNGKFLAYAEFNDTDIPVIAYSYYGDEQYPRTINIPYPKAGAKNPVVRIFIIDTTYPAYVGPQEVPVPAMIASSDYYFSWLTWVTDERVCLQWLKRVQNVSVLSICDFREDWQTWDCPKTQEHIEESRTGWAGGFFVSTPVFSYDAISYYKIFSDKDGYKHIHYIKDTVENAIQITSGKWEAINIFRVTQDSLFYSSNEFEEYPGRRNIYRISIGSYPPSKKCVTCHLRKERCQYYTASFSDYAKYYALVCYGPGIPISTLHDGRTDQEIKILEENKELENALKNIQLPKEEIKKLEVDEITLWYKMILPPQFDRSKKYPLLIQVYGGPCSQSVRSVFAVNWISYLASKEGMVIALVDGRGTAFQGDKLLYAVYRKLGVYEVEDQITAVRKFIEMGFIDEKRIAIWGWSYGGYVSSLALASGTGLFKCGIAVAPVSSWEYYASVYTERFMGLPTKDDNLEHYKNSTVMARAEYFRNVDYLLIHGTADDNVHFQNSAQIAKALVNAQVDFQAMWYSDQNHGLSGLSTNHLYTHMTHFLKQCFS

[2] = Metabolic stability in human liver microsomes (HLM); details: human
Method: Metabolic stability in HLM was measured as described in J Comput Aided Mol Des 2015, 29, 795.

Kinetic solubility = details: kinetic from dmso stock
Method: Kinetic solubility was measured as described in Comput Aided Mol Des 2015, 29, 795.

[3] = target: Prolyl endopeptidase, Prolyl Oligopeptidase (hPREP) (Homo sapiens (Human), UniProt P48147); test: hPrep inhibition assay; type: biochemical; details: hPREP 0.6 nM, Z-Gly-Pro-amino-methylcoumarin 50 μM; read-out: PREP IC50
Sequence of Prolyl endopeptidase, Prolyl Oligopeptidase (hPREP) (P48147 whole entry): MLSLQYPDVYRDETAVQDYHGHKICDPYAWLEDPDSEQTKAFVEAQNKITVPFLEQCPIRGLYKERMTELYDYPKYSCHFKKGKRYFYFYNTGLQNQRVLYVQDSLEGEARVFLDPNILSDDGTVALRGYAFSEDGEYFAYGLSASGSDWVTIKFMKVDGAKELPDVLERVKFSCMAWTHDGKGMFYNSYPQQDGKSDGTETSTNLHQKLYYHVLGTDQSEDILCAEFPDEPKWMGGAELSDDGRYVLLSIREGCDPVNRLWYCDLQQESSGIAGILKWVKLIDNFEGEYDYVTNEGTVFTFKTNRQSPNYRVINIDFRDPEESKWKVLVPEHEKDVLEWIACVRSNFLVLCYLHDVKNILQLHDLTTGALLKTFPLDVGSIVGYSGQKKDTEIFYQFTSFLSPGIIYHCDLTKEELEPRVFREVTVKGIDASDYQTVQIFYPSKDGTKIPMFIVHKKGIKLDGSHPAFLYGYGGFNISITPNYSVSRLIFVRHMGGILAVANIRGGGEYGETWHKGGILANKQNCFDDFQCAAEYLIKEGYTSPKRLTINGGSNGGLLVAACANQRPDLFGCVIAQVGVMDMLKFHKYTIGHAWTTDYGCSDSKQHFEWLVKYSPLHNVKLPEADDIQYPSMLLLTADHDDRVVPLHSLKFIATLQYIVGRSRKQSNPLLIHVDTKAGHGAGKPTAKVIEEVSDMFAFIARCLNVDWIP
In short: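 Recombinant human PREP at 0.6 nM final with Z-Gly-Pro-AMC substrate at 50 μM final in Tris-HCl pH 7.5, NaCl, Triton X-100, glutathione; 15 min rt preincubation then 20 min rt reaction in dark. AMC fluorescence (ex 340/em 460 nm); IC50 from one-site dose-response fit of % inhibition.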

[4] = Metabolic stability in rat hepatocytes (rHep); details: n = 1 or geometric mean of n = 2-3
[5] = HLM CLint, n = 1 or average of n = 2-3
[6] = Solubility, kinetic solubility, n = 1 or average of n = 2-3

Sequence of FAP (Q12884 38-760): as the sequence (Q12884 38-760) above

| SMILES | pIC50 (FAP; hFAP […]) | pIC50 [1] | hFAP Binding assay k(off) (hFAP (M39-A757)) | hFAP Binding assay k(on) (hFAP (M39-A757)) | pKd (hFAP (M39-A757)) | microsomal CLint [2, 5] | solubility (Kinetic solubility; [6]) | pIC50 [3] | rHep CLint [4] | pIC50 (FAP; hFAP 0.24 nM) | microsomal CLint [2] | solubility (Kinetic solubility) |
| --- | --- | --- | --- | --- | --- | --- | --- | --- | --- | --- | --- | --- |
| N#C[C@@H]1CSCN1C(=O)CNC(=O)c1ccnc2ccc(N3C[C@@H]4[C@H](C3)[C@H]4C(F)(F)F)cc12 [Example 208, N-(2-((R)-4-Cyanothiazolidin-3-yl)-2-oxoethyl)-6-((1R,5S,6R)-6-(trifluoromethyl)-3-azabicyclo[3.1.0]hexan-3-yl)quinoline-4-carboxamide] | 9.66 | 9.96 | 0.00026 s⁻¹ | 5600000 M⁻¹ s⁻¹ | 10.34 | 72 µL/min/mg | 1.6 µM (≈ 0.761 µg/mL) | 6.68 | 12 μL/min/1E6 | – | – | – |
| N#C[C@@H]1CSCN1C(=O)CNC(=O)c1ccnc2ccc(N3CCC4(CC4)C3)cc12 [Example 49, (R)—N-(2-(4-Cyanothiazolidin-3-yl)-2-oxoethyl)-6-(5-azaspiro[2.4]heptan-5-yl)quinoline-4-carboxamide] | 9.72 | 10.39 | 0.00017 s⁻¹ | 8800000 M⁻¹ s⁻¹ | 10.70 | – | – | 6.47 | 48 μL/min/1E6 | – | 58 µL/min/mg | 13 µM (≈ 5.48 µg/mL) |
| N#C[C@@H]1CSCN1C(=O)CNC(=O)c1ccnc2ccc(N3CCSCC3)cc12 [Example 3, (R)—N-(2-(4-Cyanothiazolidin-3-yl)-2-oxoethyl)-6-thiomorpholinoquinoline-4-carboxamide] | 9.62 | 9.89 | 0.0004 s⁻¹ | 4100000 M⁻¹ s⁻¹ | 10.02 | 75 µL/min/mg | 700 µM (≈ 299 µg/mL) | 6.16 | 28 μL/min/1E6 | – | – | – |
| N#C[C@@H]1CSCN1C(=O)CNC(=O)c1ccnc2ccc(N3CCOCC34CCC4)cc12 [Example 104, (R)—N-(2-(4-cyanothiazolidin-3-yl)-2-oxoethyl)-6-(8-oxa-5-azaspiro[3.5]nonan-5-yl)quinoline-4-carboxamide] | 9.68 | 10.09 | 0.000061 s⁻¹ | 3000000 M⁻¹ s⁻¹ | 10.70 | – | – | 6.19 | 28 μL/min/1E6 | – | 130 µL/min/mg | 930 µM (≈ 420 µg/mL) |
| N#C[C@@H]1CSCN1C(=O)CNC(=O)c1ccnc2ccc(-c3cncnc3)cc12 [Example 127, (R)—N-(2-(4-Cyanothiazolidin-3-yl)-2-oxoethyl)-6-(pyrimidin-5-yl)-quinoline-4-carboxamide] | 9.42 | 9.80 | 0.0020 s⁻¹ | 6000000 M⁻¹ s⁻¹ | 9.47 | 11 µL/min/mg | 120 µM (≈ 48.5 µg/mL) | 6.89 | 8.2 μL/min/1E6 | – | – | – |
| CC1(C)CCN(c2ccc3nccc(C(=O)NCC(=O)N4CSC[C@H]4C#N)c3c2)C1 [Example 48, (R)—N-(2-(4-Cyanothiazolidin-3-yl)-2-oxoethyl)-6-(3,3-dimethylpyrrolidin-1-yl)quinoline-4-carboxamide] | 9.54 | 9.96 | 0.000089 s⁻¹ | 1400000 M⁻¹ s⁻¹ | 10.17 | 89 µL/min/mg | 18 µM (≈ 7.62 µg/mL) | 6.77 | 51 μL/min/1E6 | – | – | – |

The remaining compounds from weak to strong by pIC50 [1], led by results:

| pIC50 (FAP; hFAP […]) | pIC50 [1] | hFAP Binding assay k(off) (hFAP (M39-A757)) | hFAP Binding assay k(on) (hFAP (M39-A757)) | pKd (hFAP (M39-A757)) | microsomal CLint [2, 5] | solubility (Kinetic solubility; [6]) | pIC50 [3] | rHep CLint [4] | pIC50 (FAP; hFAP 0.24 nM) | SMILES | microsomal CLint [2] | solubility (Kinetic solubility) |
| --- | --- | --- | --- | --- | --- | --- | --- | --- | --- | --- | --- | --- |
| 9.51 | 9.96 | 0.00010 s⁻¹ | 3000000 M⁻¹ s⁻¹ | 10.48 | 54 µL/min/mg | > 1000 µM | 6.24 | 23 μL/min/1E6 | – | C[C@H]1COC[C@H](C)N1c1ccc2nccc(C(=O)NCC(=O)N3CSC[C@H]3C#N)c2c1 [Example 103, N-(2-((R)-4-Cyanothiazolidin-3-yl)-2-oxoethyl)-6-((3S,5S)-3,5-dimethyl-morpholino)quinoline-4-carboxamide] | – | – |
| – | 10.06 | 0.00022 s⁻¹ | 120000 M⁻¹ s⁻¹ | 8.72 | 92 µL/min/mg | 800 µM | 6.25 | 15 μL/min/1E6 | 9.27 | N#C[C@@H]1CSCN1C(=O)CNC(=O)c1ccnc2ccc(-c3ccnn3[C@H]3CCCCO3)cc12 (mixture of isomers) [Example 176, N-(2-((R)-4-Cyanothiazolidin-3-yl)-2-oxoethyl)-6-(1-((RS)-tetrahydro-2H-pyran-2-yl)-1H-pyrazol-5-yl)quinoline-4-carboxamide] | – | – |
| 9.60 | 10.08 | 0.00025 s⁻¹ | 6700000 M⁻¹ s⁻¹ | 10.44 | 55 µL/min/mg | 11 µM (≈ 4.5 µg/mL) | 6.36 | 63 μL/min/1E6 | – | C[C@@H]1CCN(c2ccc3nccc(C(=O)NCC(=O)N4CSC[C@H]4C#N)c3c2)C1 [Example 55, N-(2-((R)-4-Cyanothiazolidin-3-yl)-2-oxoethyl)-6-((R)-3-methylpyrrolidin-1-yl)quinoline-4-carboxamide] | – | – |
| 9.57 | 10.21 | 0.00019 s⁻¹ | 2600000 M⁻¹ s⁻¹ | 10.06 | > 300 µL/min/mg | 40 µM (≈ 17.7 µg/mL) | 7.52 | 91 μL/min/1E6 | – | N#C[C@@H]1CSCN1C(=O)CNC(=O)c1ccnc2ccc(N3CCCC[C@@H](F)C3)cc12 [Example 59, N-(2-((R)-4-Cyanothiazolidin-3-yl)-2-oxoethyl)-6-((R)-3-fluoroazepan-1-yl)quinoline-4-carboxamide] | – | – |
| 9.60 | 10.24 | 0.000085 s⁻¹ | 710000 M⁻¹ s⁻¹ | 9.92 | 31 µL/min/mg | 640 µM (≈ 281 µg/mL) | 6.55 | 46 μL/min/1E6 | – | C[C@H]1CCN(c2ccc3nccc(C(=O)NCC(=O)N4CSC[C@H]4C#N)c3c2)CCO1 [Example 62, N-(2-((R)-4-Cyanothiazolidin-3-yl)-2-oxoethyl)-6-((S)-7-methyl-1,4-oxazepan-4-yl)quinoline-4-carboxamide] | – | – |
| 9.74 | 10.41 | 0.00017 s⁻¹ | 4400000 M⁻¹ s⁻¹ | 10.41 | 31 µL/min/mg | 100 µM (≈ 43.1 µg/mL) | 6.33 | 19 μL/min/1E6 | – | N#C[C@@H]1CSCN1C(=O)CNC(=O)c1ccnc2ccc(N3C[C@H](F)[C@@H](F)C3)cc12 [Example 213, N-(2-((R)-4-Cyanothiazolidin-3-yl)-2-oxoethyl)-6-((3S,4S)-3,4-difluoro-pyrrolidin-1-yl)quinoline-4-carboxamide] | – | – |
